The source of these data is ChEMBL document CHEMBL1201862, “PubChem BioAssay data set” (2004).

Assay in all cases: growth of human tumour cells (NCI), 48 h
The subject of test [1] is A549.
Test [2] relates to HCT-15.
Test [3] deals with Hs-578T.
The test system of test [4] is K562.
Test [5] concerns KM12.
The subject of test [6] is LOX IMVI.
The subject of test [7] is MDA-MB-231.
The test system of test [8] is NCI-H23.
The test system of test [9] is NCI-H460.
The subject of test [10] is OVCAR-5.
Test [11] concerns OVCAR-8.
Test [12] concerns SK-MEL-5.
Test [13] concerns SNB-75.
Test [14] relates to SR.
For test [15], the system named is SW-620.
Test [16] relates to T47D.
Test [17] deals with TK-10.
Test [18] deals with UO-31.
For test [19], the system named is A498.

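A five-concentration, 48-hour dose response in 96-well plates underlies each endpoint, interpolated linearly between surrounding concentrations. GI50: concentration for 50% inhibition of growth.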 The source made the active and inactive calls. Cut-off read from the data, not from the text of the source: active = GI50 up to about 1.1 µM and inactive = higher.

Consider `C[Si](C)(C)C#CCOC=C1CC1`, for which the GI50 in test [1] is > 100 µM (inactive); in test [2] it was > 100 µM; in test [3], > 100 µM (inactive); in [4], > 100 µM (inactive); in [5], > 100 µM (inactive); in [6], 28.6 µM (inactive). Also, the GI50 in test [7], in test [8], in test [9], in test [10], in [11] and in [12] was > 100 µM (inactive) throughout. The GI50 in test [13] is > 100 µM (inactive); in [14], 52.5 µM (inactive); in [15] it was > 100 µM (inactive); in test [16], > 100 µM (inactive); in test [17], > 100 µM (inactive); in test [18] it was > 100 µM (inactive).
For `COc1ccc(C(=O)CCN(C)C)c2ccccc12`, the GI50 in test [19] was 27.4 µM (inactive); in test [1] it was > 58.2 µM (inactive); in [2], 21.4 µM; in [3], 23.6 µM (inactive); in test [4] it was 29.7 µM (inactive); in test [5], 19.5 µM (inactive). In addition, the GI50 is 18.9 µM (inactive) in test [6]; 19.1 µM (inactive) in test [7]; 20.8 µM (inactive) in test [8]; > 59.8 µM (inactive) in [9]; 55.6 µM (inactive) in test [10]; 19.5 µM (inactive) in test [11]. For the same compound, the GI50 in test [12] is > 56.8 µM (inactive); in [13], 23 µM (inactive); in test [15], 18 µM (inactive); in [16], 11.3 µM (inactive); in [17] it was > 38.3 µM (inactive); in [18], 21.5 µM (inactive).
As for `COc1ccc(C2C3CCc4ccccc4C3=NN2S(=O)(=O)c2ccc(Cl)cc2)cc1` (stereo not drawn), the GI50 in test [1] was 27.9 µM (inactive); in [2], 1.8 µM; in test [3], 33 µM (inactive); in [4] it was 4.98 µM (inactive); in test [5], 7.08 µM (inactive); in test [6] it was 22.8 µM (inactive). Further, the GI50 in test [7] was 17.1 µM (inactive); in [8], 33.3 µM (inactive); in test [9], 15.8 µM (inactive); in test [10], 47.6 µM (inactive); in [11], 41.6 µM (inactive); in [12] it was 16 µM (inactive). Further, the GI50 was 3.01 µM (inactive) in [14]; 23.2 µM (inactive) in [15]; 10.7 µM (inactive) in test [16]; 32.4 µM (inactive) in test [17]; 22.6 µM (inactive) in test [18].
Consider `COc1cccc(NC(=O)CC(=O)N2N=C(C)C(/N=N/c3ccc(C(=O)O)cc3)C2=O)c1` (stereo not drawn), for which the GI50 in [1] was > 100 µM (inactive); in [2], > 100 µM; in test [3], > 100 µM (inactive); in test [4], > 100 µM (inactive); in [5] it was > 100 µM (inactive); in [6], > 100 µM (inactive). Also, the GI50 in test [7] was > 100 µM (inactive); in test [8] it was > 100 µM (inactive); in [10] it was > 100 µM (inactive); in test [11], > 100 µM (inactive); in [12] it was > 100 µM (inactive); in [13], 16.6 µM (inactive). The GI50 in test [14], in [15], in [16], in test [17] and in test [18] was > 100 µM (inactive) each time.
As to `CC(=O)OCC1OC(OC2CC3C(C)(C)C(OC(C)=O)CC[C@]3(C)C3CCC45CC4(CCC5[C@@H](C)C[C@H](O)C(O)C(C)(C)O)[C@]23C)C(O)C(O)C1O` (stereo partly drawn), the GI50 in test [19] is > 10 µM (inactive); in test [1], > 10 µM (inactive); in test [2], > 10 µM; in test [3], > 10 µM (inactive); in test [4] it was 9.12 µM (inactive); in test [5] it was > 10 µM (inactive). The GI50 in test [6], in test [7], in test [8], in [9], in [10] and in test [11] was > 10 µM (inactive) in each case. The GI50 in test [12], in [13], in test [15], in [16], in test [17] and in [18] was > 10 µM (inactive) each time.
For the compound `CC(C)(C)c1cc(C(CO)OCCOCCO)cc(C(C)(C)C)c1O` (stereo not drawn), the GI50 in test [19] is > 100 µM (inactive); in test [1] it was > 100 µM (inactive); in test [2], > 100 µM; in test [3] it was > 100 µM (inactive); in test [4], > 100 µM (inactive); in [5] it was > 100 µM (inactive). Moreover, the GI50 in test [6], in test [7], in [8], in test [10], in test [11] and in test [12] was > 100 µM (inactive) each time. In addition, the GI50 in [13], in test [15], in test [16], in test [17] and in [18] was > 100 µM (inactive) throughout.
As for `C=CC[C@@]1(C(=O)OC)[C@H](Sc2ccccc2)C1(C)C`, the GI50 in [19] is 31.3 µM (inactive); in test [1], 32.5 µM (inactive); in test [2] it was 31 µM; in [3], 55.6 µM (inactive); in test [5] it was 35.1 µM (inactive); in test [7] it was 69 µM (inactive). Besides, the GI50 is 23.2 µM (inactive) in test [8]; 66.5 µM (inactive) in test [9]; 80.9 µM (inactive) in test [10]; 53.8 µM (inactive) in test [11]; 18.7 µM (inactive) in [12]; 21.8 µM (inactive) in test [13]. The GI50 in test [15] was 61.4 µM (inactive); in test [16], > 100 µM (inactive); in test [17] it was > 100 µM (inactive); in [18], 83 µM (inactive).
As to `Cc1c2cnccc2c(C)c2c1[nH]c1ccc(O)cc12`, the GI50 in test [1] is 1.52 µM (inactive); in [2] it was 0.971 µM; in test [3], > 10 µM (inactive); in test [4], 3.17 µM (inactive); in [5] it was 0.962 µM (active); in [6] it was 0.342 µM (active). Moreover, the GI50 in test [7] is 1.57 µM (inactive); in test [8], 1.57 µM (inactive); in test [9], 0.458 µM (active); in [10], 2.4 µM (inactive); in test [11], 0.607 µM (active); in test [12] it was > 10 µM (inactive). For the same compound, the GI50 in test [13] is 1.87 µM (inactive); in test [14] it was 0.31 µM (active); in test [15], 0.989 µM (active); in test [16], 5.92 µM (inactive); in test [17], 3.91 µM (inactive).
